Assay results published in PubChem BioAssay (NCI).
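Method: 48-hour compound exposure of cells in 96-well plates, five concentrations, linear interpolation of endpoints. GI50 is the concentration that inhibits growth by half. Definition used: TGI = concentration required for complete inhibition of growth.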

Experiments:
Assay in all cases: NCI-60 cell line screen, 48 h
NCI-H23 lung = test system: NCI-H23 lung
NCI-H226 lung = test system: NCI-H226 lung
MALME-3M melanoma = test system: MALME-3M melanoma
SK-OV-3 ovarian = test system: SK-OV-3 ovarian
K-562 leukemia = test system: K-562 leukemia
NCI-H522 lung = test system: NCI-H522 lung
SF-268 CNS = test system: SF-268 CNS
SR leukemia = test system: SR leukemia
SK-MEL-5 melanoma = test system: SK-MEL-5 melanoma
M14 melanoma = test system: M14 melanoma

SMILES: COc1cc2c3c(n(CCCN=[N+]=[N-])c(=O)c2cc1OC)-c1ccc(N)cc1C3=O
- GI50 (NCI-H23 lung): 0.17 µM
- TGI (NCI-H23 lung): 0.73 µM
- GI50 (NCI-H226 lung): 0.249 µM
- TGI (NCI-H226 lung): 1.16 µM
- GI50 (MALME-3M melanoma): 0.804 µM
- TGI (MALME-3M melanoma): 4.63 µM
- GI50 (SK-OV-3 ovarian): 0.277 µM
- TGI (SK-OV-3 ovarian): 0.716 µM
- GI50 (K-562 leukemia): 0.177 µM
- GI50 (NCI-H522 lung): 0.133 µM
- TGI (NCI-H522 lung): 0.983 µM
- GI50 (SF-268 CNS): 0.34 µM
- TGI (SF-268 CNS): > 32.4 µM
- GI50 (SR leukemia): 0.0276 µM
- TGI (SR leukemia): 0.498 µM
- GI50 (SK-MEL-5 melanoma): 0.0784 µM
- TGI (SK-MEL-5 melanoma): 0.223 µM
- GI50 (M14 melanoma): 0.0591 µM
- TGI (M14 melanoma): 0.237 µM

SMILES: COC(=O)C(=C\Sc1ccccc1)/C=C/C(=O)OC(C)(C)C
- TGI (NCI-H23 lung): 33.1 µM
- TGI (NCI-H226 lung): 30.9 µM
- TGI (MALME-3M melanoma): 30.7 µM
- TGI (SK-OV-3 ovarian): 43.9 µM
- TGI (K-562 leukemia): 15.8 µM
- TGI (NCI-H522 lung): 9.9 µM
- TGI (SF-268 CNS): 31.8 µM
- TGI (SR leukemia): 21 µM
- TGI (SK-MEL-5 melanoma): 28.6 µM
- TGI (M14 melanoma): 21.2 µM

SMILES: CCS(=O)(=O)c1ccc(OC)c(Nc2ncc(-c3cccc(-c4ccccc4F)c3)o2)c1
- GI50 (NCI-H23 lung): > 23.8 µM
- TGI (NCI-H23 lung): > 25 µM
- GI50 (NCI-H226 lung): 2.24 µM
- TGI (NCI-H226 lung): > 25 µM
- GI50 (MALME-3M melanoma): > 25 µM
- TGI (MALME-3M melanoma): > 25 µM
- GI50 (SK-OV-3 ovarian): 5.1 µM
- TGI (SK-OV-3 ovarian): 14.3 µM
- GI50 (K-562 leukemia): 5.75 µM
- TGI (K-562 leukemia): > 25 µM
- GI50 (NCI-H522 lung): 10.6 µM
- TGI (NCI-H522 lung): > 25 µM
- GI50 (SF-268 CNS): 15.1 µM
- TGI (SF-268 CNS): > 25 µM
- GI50 (SR leukemia): > 25 µM
- TGI (SR leukemia): > 25 µM
- GI50 (SK-MEL-5 melanoma): > 14.6 µM
- TGI (SK-MEL-5 melanoma): > 25 µM
- GI50 (M14 melanoma): > 25 µM
- TGI (M14 melanoma): > 25 µM

SMILES: O=C(/C=C\c1cccc([N+](=O)[O-])c1)c1ccccc1
- GI50 (NCI-H23 lung): 6.16 µM
- TGI (NCI-H23 lung): 21.3 µM
- GI50 (NCI-H226 lung): 18.7 µM
- TGI (NCI-H226 lung): 45.9 µM
- GI50 (MALME-3M melanoma): 2.07 µM
- TGI (MALME-3M melanoma): 5.01 µM
- GI50 (SK-OV-3 ovarian): 15 µM
- TGI (SK-OV-3 ovarian): 30.4 µM
- GI50 (K-562 leukemia): 2.21 µM
- TGI (K-562 leukemia): > 100 µM
- GI50 (NCI-H522 lung): 1.46 µM
- TGI (NCI-H522 lung): 3.93 µM
- GI50 (SF-268 CNS): 5.46 µM
- TGI (SF-268 CNS): 20.5 µM
- GI50 (SR leukemia): 2.17 µM
- TGI (SR leukemia): > 100 µM
- GI50 (SK-MEL-5 melanoma): 6.97 µM
- TGI (SK-MEL-5 melanoma): 20.2 µM
- GI50 (M14 melanoma): 3.74 µM
- TGI (M14 melanoma): 14.2 µM

SMILES: CC(C)[C@@H]1NC(=O)[C@]2(C)CSC(=N2)c2csc(n2)CNC(=O)C[C@@H](/C=C/CCS)OC1=O
- GI50 (NCI-H23 lung): 0.219 µM
- TGI (NCI-H23 lung): > 30.6 µM
- GI50 (NCI-H226 lung): 0.403 µM
- TGI (NCI-H226 lung): 7.69 µM
- GI50 (MALME-3M melanoma): 0.0295 µM
- TGI (MALME-3M melanoma): > 100 µM
- GI50 (SK-OV-3 ovarian): 0.0204 µM
- TGI (SK-OV-3 ovarian): 0.228 µM
- GI50 (K-562 leukemia): 0.273 µM
- TGI (K-562 leukemia): > 100 µM
- GI50 (NCI-H522 lung): 0.165 µM
- TGI (NCI-H522 lung): 3.75 µM
- GI50 (SF-268 CNS): 0.181 µM
- TGI (SF-268 CNS): > 100 µM
- GI50 (SR leukemia): 0.0563 µM
- TGI (SR leukemia): > 100 µM
- GI50 (SK-MEL-5 melanoma): 0.0446 µM
- TGI (SK-MEL-5 melanoma): 0.197 µM
- GI50 (M14 melanoma): 0.0835 µM
- TGI (M14 melanoma): 52.7 µM

SMILES: COc1ccc(C2=C(Br)C(=O)OC2)cc1Cl
- GI50 (NCI-H23 lung): 29.5 µM
- TGI (NCI-H23 lung): > 100 µM
- GI50 (NCI-H226 lung): 25 µM
- TGI (NCI-H226 lung): 62.7 µM
- GI50 (MALME-3M melanoma): 37.3 µM
- TGI (MALME-3M melanoma): > 78.3 µM
- TGI (SK-OV-3 ovarian): > 66.9 µM
- GI50 (K-562 leukemia): 33.7 µM
- TGI (K-562 leukemia): > 86.2 µM
- GI50 (NCI-H522 lung): 37.8 µM
- TGI (NCI-H522 lung): > 100 µM
- GI50 (SF-268 CNS): 32.9 µM
- TGI (SF-268 CNS): 99.6 µM
- GI50 (SR leukemia): 22.1 µM
- TGI (SR leukemia): > 100 µM
- GI50 (SK-MEL-5 melanoma): 29.1 µM
- TGI (SK-MEL-5 melanoma): > 100 µM
- GI50 (M14 melanoma): > 53 µM
- TGI (M14 melanoma): > 100 µM

SMILES: O=C1OCC2=C1C(c1cccc([N+](=O)[O-])c1)c1cc3c(cc1N2CCO)CCC3 (stereo not drawn)
- GI50 (NCI-H23 lung): 0.335 µM
- TGI (NCI-H23 lung): > 50 µM
- GI50 (NCI-H226 lung): 1.77 µM
- TGI (NCI-H226 lung): 49.4 µM
- GI50 (MALME-3M melanoma): 0.504 µM
- TGI (MALME-3M melanoma): 35.1 µM
- GI50 (SK-OV-3 ovarian): 0.226 µM
- TGI (SK-OV-3 ovarian): > 50 µM
- GI50 (K-562 leukemia): 0.0666 µM
- TGI (K-562 leukemia): > 50 µM
- GI50 (NCI-H522 lung): 0.0431 µM
- TGI (NCI-H522 lung): 6.3 µM
- GI50 (SF-268 CNS): 0.295 µM
- TGI (SF-268 CNS): 22.9 µM
- GI50 (SR leukemia): 0.0554 µM
- TGI (SR leukemia): > 36.3 µM
- GI50 (SK-MEL-5 melanoma): 0.127 µM
- TGI (SK-MEL-5 melanoma): 3.56 µM
- GI50 (M14 melanoma): 0.112 µM
- TGI (M14 melanoma): 17.2 µM

SMILES: O=C(/C=C/c1ccccc1Cl)c1ccc(O)cc1
- GI50 (NCI-H23 lung): 10.6 µM
- TGI (NCI-H23 lung): 31.5 µM
- GI50 (NCI-H226 lung): 15.2 µM
- TGI (NCI-H226 lung): 42.8 µM
- GI50 (MALME-3M melanoma): 16.3 µM
- TGI (MALME-3M melanoma): 31.1 µM
- GI50 (SK-OV-3 ovarian): 12.1 µM
- TGI (SK-OV-3 ovarian): 25.9 µM
- GI50 (K-562 leukemia): 3.12 µM
- TGI (K-562 leukemia): > 100 µM
- GI50 (NCI-H522 lung): 9.33 µM
- TGI (NCI-H522 lung): 23.9 µM
- GI50 (SF-268 CNS): 8.91 µM
- TGI (SF-268 CNS): 25.3 µM
- GI50 (SR leukemia): 2.82 µM
- TGI (SR leukemia): > 24.4 µM
- GI50 (SK-MEL-5 melanoma): 9.57 µM
- TGI (SK-MEL-5 melanoma): 23.4 µM
- GI50 (M14 melanoma): 10.6 µM
- TGI (M14 melanoma): 24.6 µM

SMILES: Cc1cc(=O)[nH]c(CNC(=O)c2cccc3ccccc23)n1
- TGI (NCI-H23 lung): > 100 µM
- TGI (NCI-H226 lung): > 100 µM
- TGI (MALME-3M melanoma): > 100 µM
- TGI (SK-OV-3 ovarian): > 100 µM
- TGI (K-562 leukemia): > 100 µM
- TGI (NCI-H522 lung): > 100 µM
- TGI (SF-268 CNS): > 100 µM
- TGI (SR leukemia): > 100 µM
- TGI (SK-MEL-5 melanoma): > 100 µM
- TGI (M14 melanoma): > 100 µM

SMILES: O=C(Nc1cccnc1)c1cccs1
- GI50 (NCI-H23 lung): 4.84 µM
- TGI (NCI-H23 lung): > 100 µM
- GI50 (NCI-H226 lung): 41 µM
- TGI (NCI-H226 lung): > 100 µM
- GI50 (MALME-3M melanoma): > 100 µM
- TGI (MALME-3M melanoma): > 100 µM
- GI50 (SK-OV-3 ovarian): 5.57 µM
- TGI (SK-OV-3 ovarian): > 100 µM
- GI50 (K-562 leukemia): 0.728 µM
- TGI (K-562 leukemia): > 100 µM
- GI50 (NCI-H522 lung): > 100 µM
- TGI (NCI-H522 lung): > 100 µM
- GI50 (SF-268 CNS): 4.54 µM
- TGI (SF-268 CNS): > 100 µM
- GI50 (SR leukemia): 8.47 µM
- TGI (SR leukemia): > 100 µM
- GI50 (SK-MEL-5 melanoma): 53 µM
- TGI (SK-MEL-5 melanoma): > 100 µM
- GI50 (M14 melanoma): 0.506 µM
- TGI (M14 melanoma): > 100 µM

SMILES: NCC(=O)Nc1ccc(-n2nc(C(F)(F)F)cc2-c2ccc3c(ccc4ccccc43)c2)cc1
- GI50 (NCI-H23 lung): 1.78 µM
- TGI (NCI-H23 lung): 3.75 µM
- GI50 (NCI-H226 lung): 2.15 µM
- TGI (NCI-H226 lung): 6.35 µM
- GI50 (MALME-3M melanoma): 1.83 µM
- TGI (MALME-3M melanoma): 3.51 µM
- GI50 (SK-OV-3 ovarian): 1.27 µM
- TGI (SK-OV-3 ovarian): 2.54 µM
- GI50 (K-562 leukemia): 0.472 µM
- TGI (K-562 leukemia): 3.38 µM
- GI50 (NCI-H522 lung): 1.32 µM
- TGI (NCI-H522 lung): 2.71 µM
- GI50 (SF-268 CNS): 1.13 µM
- TGI (SF-268 CNS): 2.75 µM
- GI50 (SR leukemia): 0.342 µM
- TGI (SR leukemia): 2.35 µM
- GI50 (SK-MEL-5 melanoma): 1.25 µM
- TGI (SK-MEL-5 melanoma): 2.56 µM
- GI50 (M14 melanoma): 1.61 µM
- TGI (M14 melanoma): 3.24 µM
